# Where two headings read alike, the source gives them in different places. Positions of bridges follow the written chain, without caps; N, C: chain ends. Residues, ends and D or L forms follow the SMILES beside them. No end group written: not given here.
# Tests used:
# rabbits = conditions: peripheral injections; cited from earlier work
# [1] = molecular target: T1, mouse NMDA receptor subunits z1 and e1 expressed in oocytes (Mus musculus, UniProt P35438); test: Electrophysiological NMDA specific activity assay, two-electrode voltage clamp in oocytes; type: cell-based
# T1 construct: expressed in transfected cells
# Description: Electrophysiological recordings are made with two-electrode voltage-clamp techniques, and standard oocyte expression system preparations (see Leonard and Kelso, 1990, Neuron 4:53-60; Kelso et al., 1992, J. Physiology 449:705-718). Oocytes are isolated and injected with mRNA for mouse NMDA receptor subunits: 70 nl of z1 (-- 1) RNA is co-injected with an equal volume of e1 (-- 1) RNA. After incubation for two days, recordings are made while clamping membrane potential at -80 mV. The standard recording solution contains 95 mM NaCl, 2 mM KCl, 3.8 mM BaCl2, and 5 mM HEPES. Mg^2+ is omitted because it blocks NMDA currents at some potentials; Ca^2+ is omitted because it can trigger the oocyte's endogenous Ca^2+ -dependent chloride current. Responses are evoked by the continuous perfusion of 3-5 ml of NMDA containing solutions. The recording chamber has a volume of about […].
# [2] = molecular target: T2, NMDA receptor complex, glycine co-agonist site (Rattus norvegicus, UniProt P35439); type: biochemical; conditions: rat hippocampus membranes, in the presence of 7-chlorokynurenic acid, ± S.E.M.
# T2 construct: Crude synaptic membranes used in the assay were prepared using rat hippocampal tissue; from tissue; host or cells: rat hippocampus, crude synaptic membranes
# Description: Polypeptides or amino acid compositions of the instant invention were tested for the ability to mimic the glycine co-agonist effect on the NMDA receptor using a previously validated [^3 H]MK-801 binding assay. This functional assay takes advantage of the fact that increased [^3 H]MK-801 binding by NMDA receptors can only occur upon receptor-binding channel opening. This is because the MK-801 binding site is located inside the ionophore of the NMDA receptor complex, and is thus only accessible upon the opening of the receptor complex channel. Thus increased binding of [^3 H]MK-801 is directly correlated with increased channel opening, in this assay, triggered by the binding of the polypeptides or amino acid compositions of the instant invention to the glycine co-agonist binding site.
# To further refine the assay, a selective antagonist of the glycine binding site of the NMDA receptor-channel complex is added to the assay. The normal action of 7-chlorokynurenic acid is to selectively bind to the glycine site, and inhibit NMDA receptor channel opening, and thus inhibit the binding of [^3 H]MK-801 to the NMDA receptor complex.
# Crude synaptic membranes used in the assay were prepared using rat hippocampal tissue (male Sprague-Dawly rats) and extensively washed using the procedures described previously (Haring et al., 1991, J. Neurochem. 57:323-331). Briefly, tissue which has been stored at -80-- C is homogenized in ice cold 5 mM Tris (pH 7.4) using a Brinkman Polytron® and then pelleted by centrifugation at 48,000 g for 20 minutes. The resulting supernatant is discarded, and the membranes washed three times in cold buffer. Pellets are then resuspended in 5 mM EDTA, 15 mM Tris (pH 7.4), and incubated for one hour at 37-- C. The membrane suspensions are then pelleted by centrifugation at 48,000g for 20 min and stored at -80-- C until use in the assay.
# Frozen pellets are thawed at room temperature and washed three times by resuspension in 5 mM Tris (pH 7.4) and centrifugation. Final pellets are suspended at concentrations of 2 to 3 mg/ml in 5 mM Tris buffer (pH 7.4). Binding reactions are initiated by the addition of 200-- g of freshly prepared membranes to reaction mixtures (about 1 ml final volume) containing 1 nM [^3 H]MK-801 at 25-- C in the presence of a range of peptide concentrations and 60-- M 7-chlorokynurenic acid. Non-specific binding is determined using 10-- M unlabelled MK-801. Binding reactions are terminated by filtration through a Brandel 24-well cell harvester onto Whatman GF/B glass filters that have been presoaked in 0.25% polyethyleneimine for 30 minutes.
# [3] = molecular target: T2, NMDA receptor complex, glycine co-agonist site; type: biochemical; conditions: in the presence of 10 μM L-glutamate, ± S.E.M.
Compound,learning rates in trace eyeblink conditioning (rabbits),"NMDA current (FIG. 3B) ([1]; NMDA alone, same cell)","[3H]MK-801 binding, percentage of control binding ([2]; 10^-5 M peptide)","[3H]MK-801 binding, percentage of control binding ([2]; 10^-6 M peptide)","[3H]MK-801 binding, percentage of control binding ([2]; 10^-7 M peptide)","[3H]MK-801 binding, percentage of control binding ([2]; 10^-8 M peptide)","[3H]MK-801 binding, percentage of control binding ([2]; 10^-9 M peptide)","NMDA current (FIG. 3B) ([1]; 100-- M NMDA with 10-- M glycine, -80 mV)","[3H]MK-801 binding, percentage of control binding ([3]; 10^-5 M peptide)","[3H]MK-801 binding, percentage of control binding ([3]; 10^-6 M peptide)","[3H]MK-801 binding, percentage of control binding ([3]; 10^-7 M peptide)","[3H]MK-801 binding, percentage of control binding ([3]; 10^-8 M peptide)"
N[C@@H]1CONC1=O [D-cycloserine],doubled,–,–,–,–,–,–,–,–,–,–,–
"CN[C@H](CC(=O)O)C(=O)O [NMDA, N-methyl-D-aspartate]",–,about 7 nA,–,–,–,–,–,–,–,–,–,–
C[C@@H](O)[C@@H]1NC(=O)[C@@H]2CCCN2C(=O)[C@@H]2CCCN2C(=O)[C@H]([C@@H](C)O)NC(=O)[C@H](CO)NC(=O)[C@H](Cc2ccc(O)cc2)NC(=O)[C@H](Cc2c[nH]cn2)NC(=O)[C@H](CCC(N)=O)NC(=O)[C@H](CCC(N)=O)NC(=O)[C@@H](N)CSSC[C@@H](C(=O)O)NC1=O [NT-10] (H-CQQHYSTPPTC-OH; disulfide 1-11),–,–,116 ± 12%,128 ± 4%,114 ± 3%,90 ± 8%,100 ± 2%,–,–,–,–,–
"C[C@@H](O)[C@H](N)C(=O)N1CCC[C@H]1C(=O)N1CCC[C@H]1C(=O)N[C@H](C(=O)O)[C@@H](C)O [NT-13, Thr-Pro-Pro-Thr] (H-TPPT-OH)",–,–,117 ± 7%,129 ± 10%,110 ± 10%,103 ± 8%,97 ± 8%,–,–,–,–,–
"C[C@@H](O)[C@H](N)C(=O)N1CCC[C@H]1C(=O)N1CCC[C@H]1C(=O)O [NT-14, Thr-Pro-Pro] (H-Thr-Pro-Pro-OH)",–,–,95 ± 4%,98 ± 8%,96 ± 5%,101 ± 1%,89 ± 6%,–,–,–,–,–
"C[C@@H](O)[C@H](NC(=O)[C@@H]1CCCN1C(=O)[C@@H]1CCCN1)C(=O)O [NT-15, Pro-Pro-Thr] (H-Pro-Pro-Thr-OH)",–,–,93 ± 1%,108 ± 12%,100 ± 7%,103 ± 2%,99 ± 21%,–,–,–,–,–
"O=C(O)[C@@H]1CCCN1C(=O)[C@@H]1CCCN1 [NT-16, Pro-Pro] (H-Pro-Pro-OH)",–,–,117 ± 12%,103 ± 3%,97 ± 6%,89 ± 8%,83 ± 9%,–,–,–,–,–
"C[C@@H](O)[C@H](N)C(=O)N1CCC[C@H]1C(=O)N[C@H](C(=O)O)[C@@H](C)O [NT-17, Thr-Pro-Thr] (H-Thr-Pro-Thr-OH)",–,–,119 ± 21%,117 ± 14%,128 ± 9%,125 ± 17%,122 ± 23%,–,–,–,–,–
NCC(=O)O [glycine],–,–,–,–,–,–,–,about 284 nA,–,–,–,–
EDLAVYYSQQHYSTPPT [NT-5],–,–,112 ± 4%,106 ± 2%,114 ± 2%,100 ± 9%,109 ± 8%,–,–,–,–,–
FTISSVQAELDLAVYYSQQHYSTPPT [NT-7],–,–,100 ± 3%,104 ± 0%,97 ± 1%,103 ± 4%,96 ± 4%,–,–,–,–,–
KASQDVSTTVA [NT-1],–,–,–,–,–,–,–,–,73 ± 6%,100 ± 2%,97 ± 2%,–
"QQHYS [NT-12, Gln-Gln-His-Tyr-Ser]",–,–,106 ± 2%,106 ± 9%,95 ± 7%,104 ± 10%,95 ± 21%,–,–,–,–,–
QQHYSTPPT [NT-3],–,–,90 ± 1%,111 ± 11%,121 ± 4%,123 ± 0%,112 ± 20%,–,–,–,–,–
QQHYSTPPTFGGG [NT-8],–,–,115 ± 6%,107 ± 6%,108 ± 4%,110 ± 5%,105 ± 7%,–,–,–,–,–
QQHYSTPPTFGGGTKLE [NT-9],–,–,120 ± 3%,112 ± 10%,125 ± 5%,126 ± 7%,104 ± 12%,–,–,–,–,–
"SASYRYT [NT-2, Ser-Ala-Ser-Tyr-Arg-Tyr-Thr]",–,–,–,–,–,–,–,–,77 ± 12%,106 ± 4%,109 ± 15%,80 ± 9%
SQQHYSTPPTS [NT-11],–,–,127 ± 21%,120 ± 11%,118 ± 4%,111 ± 4%,96 ± 23%,–,–,–,–,–
SVQAELDLAVYYSQQHYSTPPT [NT-6],–,–,91 ± 7%,96 ± 1%,101 ± 15%,101 ± 9%,95 ± 6%,–,–,–,–,–
VYYSQQHYSTPPT [NT-4],–,–,109 ± 10%,110 ± 1%,116 ± 2%,106 ± 6%,106 ± 2%,–,–,–,–,–

# — patent US6107271A, “Neuroactive peptides” (NYXIS Neuro Therapies, Inc., priority 1998, dated 2000)
